Consider 13 compounds from patent US8415376B2, “Inhibitors of PI3 kinase” (Amgen Inc., priority 2008, dated 2013).

Assay [1] concerns phosphorylation of Akt at Ser473. Put plainly: Cell-based phospho-Akt Ser473 assay (HCT116 cell). Conditions: HCT 116 human colon carcinoma cells, IGF-1 stimulated; average. From the text: Cell-Based Phospho-Akt Ser473 Assay (HCT116 Cell)
This assay determines the ability of a compound to inhibit the phosphorylation of […] in Akt using a MSD based sandwich immunoassay (Meso Scale Detection, Meso Scale Discovery (MSD), Gaithersburg, Md.). HCT 116 human colon carcinoma cell lines can be grown in McCoy's 5A growth medium (GIBCO, Carlsbad, Calif.) containing 10% FBS (GIBCO, Carlsbad, Calif.) and X1 Penicillin-streptomycin-glutamine (GIBCO, Carlsbad, Calif.). Prior to the assay, cells can be detached from the culture flask with trypsin, and re-suspended in complete media to give a final concentration of 1.6×10^5 cells per mL. Aliquots (100 μl) of the HCT116 cell suspension can be seeded into each well of a 96 well tissue culture plate to give a final density of 16,000 cells per well. Cells can then be incubated overnight at 37° C.
The following day the cells can be treated with serially diluted test compounds and incubated for 2 hours at 37° C. The culture media on the HCT 116 cells can be replaced with 189 μL McCoys media, supplemented with 0.1% BSA (ICN Biomedicals, Inc., Costa Mesa, Calif.). Compounds can be prepared as either 10 mM or 0.5 mM stock solutions in DMSO, and serially diluted 3 fold in a 10-point dose-response curve to give final concentrations that are 200-fold greater than the desired final test concentration. Aliquots (1 μL) of serially-diluted compounds can be transferred to 96 well tissue culture plates containing the HCT 116 cells. […] As a maximum response control, wells can contain 0.5% DMSO in place of compound. The plates can be mixed at 700 rpm for 2 min to ensure even distribution of the test compound and incubated for 2 hours at 37° C. Cells can then be stimulated with insulin-like growth factor 1 (Sigma, St Louis, Mo.) at final concentration of 100 ng/ml for 15 minutes at 37° C. The media can then be removed and the cells treated with 80 μL cell-lysis buffer (MSD) containing a cocktail of protease and phosphatase inhibitors for one hour at 4° C.
25 μL Cell lysate can then be transferred to pre-blocked MSD assay plates pre-coated with a capture antibody specific for Akt, and the plates can be incubated for 2 hours at room temperature. The cell lysates can then be removed and plates can then be washed four times with 200 μl per well of Tris wash buffer (500 mM Tris, PH 7.5, 1.5 M NaCl, 0.2% Tween-20). Subsequently cells can be incubated for 1 hour at room temperature with a 25 μL solution containing the detection antibody, anti-phospho Akt (Ser 473) labeled with an electrochemiluminescent compound (Meso Scale Discovery SULPHO-TAG™ label, MSD, Gaithersburg, Md.). The detection antibody can be removed and plates can then be washed four times with 200 μL per well of Tris wash buffer. An aliquot of 150 μL of diluted MSD read buffer can then be applied to each well, and the electrochemiluminescent signal can be measured using a MSD SECTOR™ plate reader (Meso Scale Discovery, Gaithersburg, Md.). This instrument measures the intensity of emitted light to determine a quantitative measure of phosphorylated Akt in each well. The dose-response data obtained with each compound can be analyzed and the IC50 inhibition of Akt phosphorylation at Ser473 can be calculated.
Activity data for the compounds tested in the PI3K cell based Akt assay is provided in Table 1 under the column heading HCT116 Cell.

The target in the next assay is T1, PI3Kβ (Homo sapiens, UniProt P42338).
T1 construct: Full length p110 subunits of PI3K α, β and δ, N-terminally labeled with polyHis tag; polyHis (N); made in house; host or cells: Sf9 insect cells (baculovirus)
In words: In vitro PI3 kinase enzyme assay (PI3K ATP loss), beta. It is filed as biochemical. The following applies: average if run more than once.

Another assay has as its target T2, mTOR (Homo sapiens, UniProt P42345).
T2 construct: purchased Invitrogen (Carlsbad, Calif.)
Put plainly: In vitro mTOR assay (Lanthascreen). The following applies: average if run more than once. It counts as biochemical. The source says: The Invitrogen (Carlsbad, Calif.) mammalian target of rapamycin (mTOR) Lanthascreen assay can be used to quantitate mTOR kinase activity in an in vitro setting. Active mTOR phosphorylates eukaryotic translation initiation factor 4E binding protein 1 (4E-BP1) on residue threonine 46. This phosphorylation event can be detected with a phospho-specific terbium (Tb) labeled Ab, in turn bringing the Tb label in close proximity to the GFP tagged 4E-BP1 and allowing for time-resolved fluorescence resonance energy transfer (TR-FRET), which correlates 4E-BP1 phosphorylation levels with mTOR kinase activity.
Enzyme reaction buffer can be prepared in deionized water containing 50 mM HEPES (pH 7.5), 0.01% Polysorbate 20, 1 mM EGTA, and 10 mM MnCl2.
Dilutions of the compound to be tested can be prepared in 96-well polypropylene plates (Fisher Scientific, Waltham, Mass.). One row represents a 10-point dose of compound diluted 1:3 in enzyme reaction buffer and 20% dimethyl sulfoxide (DMSO). The top concentration for all compounds is 36 μM. Wells 6 and 12 can serve as the no compound (DMSO only) and high compound controls.
An mTOR substrate solution can prepared in enzyme reaction buffer containing 1600 nM green fluorescent protein tagged eukaryotic translation initiation factor 4E binding protein 1 (GFP-4E-BP1) (Invitrogen, Carlsbad, Calif.) and 28 uM adenosine triphosphate (ATP) (Calbiochem, Gibbstown, N.J.).
mTOR enzyme (Invitrogen, Carlsbad, Calif.) can be diluted in enzyme reaction buffer to a working concentration of 100 ng/mL.
The enzyme assay can be run in 384 well low volume assay plates (Corning, Corning, N.Y.). 2.5 uL of substrate solution containing GFP-4E-BP1 and ATP can be added to appropriate wells in the assay plate followed by 2.5 μL of compound dilutions. 5 μL of appropriately diluted mTOR enzyme can be added and the reaction allowed to proceed for 1 hour at room temperature. Final reagent concentrations in the enzyme assay are 50 ng/mL mTOR, 400 nM GFP-4E-BP1, and 7 μM ATP.
The enzyme assay can be terminated upon the addition of 10 μL of 20 mM EDTA and 4 nM Tb-labeled anti-phospho-4E-BP1 [T46] antibody (Invitrogen, Carlsbad, Calif.). The assay plate can then be incubated at room temperature for 1 hour and results read on a Tecan Safire II plate reader (Tecan, Männedorf, Switzerland).

T1 sequence (P42338 whole entry): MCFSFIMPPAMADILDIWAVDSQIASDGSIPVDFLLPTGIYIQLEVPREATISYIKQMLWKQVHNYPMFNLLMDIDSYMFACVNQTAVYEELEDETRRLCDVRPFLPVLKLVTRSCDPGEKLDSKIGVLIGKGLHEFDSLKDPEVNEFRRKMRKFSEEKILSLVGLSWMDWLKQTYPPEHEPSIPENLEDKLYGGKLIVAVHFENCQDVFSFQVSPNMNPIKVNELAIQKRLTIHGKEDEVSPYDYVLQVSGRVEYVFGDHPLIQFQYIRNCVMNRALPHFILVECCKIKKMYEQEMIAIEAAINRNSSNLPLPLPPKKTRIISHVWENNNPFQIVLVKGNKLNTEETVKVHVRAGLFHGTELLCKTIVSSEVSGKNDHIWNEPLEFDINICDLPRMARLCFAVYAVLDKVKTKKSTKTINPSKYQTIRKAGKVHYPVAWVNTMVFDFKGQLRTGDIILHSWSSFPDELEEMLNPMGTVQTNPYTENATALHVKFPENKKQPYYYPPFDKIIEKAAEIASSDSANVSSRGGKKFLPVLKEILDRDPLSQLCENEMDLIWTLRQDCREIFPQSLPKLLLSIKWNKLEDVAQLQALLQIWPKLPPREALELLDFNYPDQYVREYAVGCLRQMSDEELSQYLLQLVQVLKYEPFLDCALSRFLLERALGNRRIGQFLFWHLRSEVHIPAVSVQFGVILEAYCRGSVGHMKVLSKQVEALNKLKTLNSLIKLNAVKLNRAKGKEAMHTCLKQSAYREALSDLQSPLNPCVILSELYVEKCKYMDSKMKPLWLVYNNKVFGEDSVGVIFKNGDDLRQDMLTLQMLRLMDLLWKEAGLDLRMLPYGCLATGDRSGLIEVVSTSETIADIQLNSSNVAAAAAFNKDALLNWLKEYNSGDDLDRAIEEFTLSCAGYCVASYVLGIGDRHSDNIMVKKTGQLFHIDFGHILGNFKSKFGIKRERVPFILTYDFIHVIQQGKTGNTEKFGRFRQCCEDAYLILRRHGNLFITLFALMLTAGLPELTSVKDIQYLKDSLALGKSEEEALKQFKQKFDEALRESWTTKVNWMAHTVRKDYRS
T1 sequence (P27986 whole entry partner): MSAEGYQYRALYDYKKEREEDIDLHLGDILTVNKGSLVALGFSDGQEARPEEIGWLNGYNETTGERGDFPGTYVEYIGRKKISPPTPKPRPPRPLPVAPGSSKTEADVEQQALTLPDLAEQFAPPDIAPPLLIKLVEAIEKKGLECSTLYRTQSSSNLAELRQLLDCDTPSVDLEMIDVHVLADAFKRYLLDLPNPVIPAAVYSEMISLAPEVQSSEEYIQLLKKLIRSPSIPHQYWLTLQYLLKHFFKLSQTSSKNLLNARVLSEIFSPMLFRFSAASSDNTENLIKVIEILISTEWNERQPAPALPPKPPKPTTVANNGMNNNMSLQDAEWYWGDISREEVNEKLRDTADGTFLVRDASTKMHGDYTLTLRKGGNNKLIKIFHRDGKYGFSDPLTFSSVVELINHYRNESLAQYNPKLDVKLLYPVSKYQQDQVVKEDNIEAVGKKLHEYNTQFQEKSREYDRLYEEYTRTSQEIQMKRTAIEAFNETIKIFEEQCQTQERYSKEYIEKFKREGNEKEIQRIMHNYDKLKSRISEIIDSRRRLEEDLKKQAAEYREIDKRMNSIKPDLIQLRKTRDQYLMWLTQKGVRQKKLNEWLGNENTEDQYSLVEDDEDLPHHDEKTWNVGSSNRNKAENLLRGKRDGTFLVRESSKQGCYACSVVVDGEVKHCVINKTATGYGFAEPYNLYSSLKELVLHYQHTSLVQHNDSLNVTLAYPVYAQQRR
T2 sequence (P42345 1360-2549 limits assumed): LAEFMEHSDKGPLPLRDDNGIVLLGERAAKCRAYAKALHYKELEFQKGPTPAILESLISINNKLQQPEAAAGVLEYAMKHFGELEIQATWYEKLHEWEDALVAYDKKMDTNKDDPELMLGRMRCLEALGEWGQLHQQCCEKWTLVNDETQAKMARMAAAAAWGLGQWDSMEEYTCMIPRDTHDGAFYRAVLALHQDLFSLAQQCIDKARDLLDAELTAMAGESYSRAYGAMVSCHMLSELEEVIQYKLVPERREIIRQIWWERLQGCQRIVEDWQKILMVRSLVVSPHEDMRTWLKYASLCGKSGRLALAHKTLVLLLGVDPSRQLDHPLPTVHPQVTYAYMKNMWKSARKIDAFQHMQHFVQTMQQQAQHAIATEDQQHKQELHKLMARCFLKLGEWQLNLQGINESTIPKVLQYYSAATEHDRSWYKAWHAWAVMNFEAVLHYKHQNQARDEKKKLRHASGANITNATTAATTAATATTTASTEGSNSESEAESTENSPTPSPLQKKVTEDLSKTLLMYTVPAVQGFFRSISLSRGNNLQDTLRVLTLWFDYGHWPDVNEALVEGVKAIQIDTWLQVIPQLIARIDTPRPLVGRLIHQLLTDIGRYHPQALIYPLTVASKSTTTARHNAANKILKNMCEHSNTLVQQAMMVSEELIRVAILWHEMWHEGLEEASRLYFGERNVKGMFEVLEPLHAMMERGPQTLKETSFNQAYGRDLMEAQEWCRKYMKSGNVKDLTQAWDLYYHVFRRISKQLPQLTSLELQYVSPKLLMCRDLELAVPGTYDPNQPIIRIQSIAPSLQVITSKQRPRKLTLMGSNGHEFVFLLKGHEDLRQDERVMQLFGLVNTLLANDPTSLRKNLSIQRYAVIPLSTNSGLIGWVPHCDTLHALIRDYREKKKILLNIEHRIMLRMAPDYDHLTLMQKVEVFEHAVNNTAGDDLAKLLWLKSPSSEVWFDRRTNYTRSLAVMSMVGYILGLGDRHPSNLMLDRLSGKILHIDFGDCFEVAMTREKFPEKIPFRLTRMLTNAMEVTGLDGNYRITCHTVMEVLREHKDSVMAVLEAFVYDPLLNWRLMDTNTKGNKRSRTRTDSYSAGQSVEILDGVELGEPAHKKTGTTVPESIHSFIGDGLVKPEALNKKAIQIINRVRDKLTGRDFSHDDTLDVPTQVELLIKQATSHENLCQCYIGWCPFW
Experimental for PI3Kβ: Full length p110 subunits of PI3K α, β and δ, N-terminally labeled with polyHis tag, can be co-expressed with p85 with Baculo virus expression vectors in sf9 insect cells. P110/p85 heterodimers can be purified by sequential Ni-NTA, Q-HP, Superdex-100 chromatography. Purified α, β and δ isozymes can be stored at −20° C. in 20 mM Tris, pH 8, 0.2M NaCl, 50% glycerol, 5 mM DTT, 2 mM Na cholate. […] The γ isozyme can be purified by sequential Ni-NTA, Superdex-200, Q-HP chromatography. The γ isozyme can be stored frozen at −80° C. in NaH2PO4, pH 8, 0.2M NaCl, 1% ethylene glycol, 2 mM β-mercaptoethanol.
In Vitro PI3 Kinase Enzyme Assays (PI3K Atploss)
PI3K enzyme assays (alpha, beta, delta and gamma) can be performed in 25 μL with the above final concentrations of components in white polyproplyene plates. Phosphatidyl inositol phosphoacceptor, PtdIns(4,5)P2 (eg. P4508) can be obtained from Echelon Biosciences, Salt Lake City, Utah. […] Test compounds can be dissolved in DMSO and diluted with three-fold serial dilutions. The compound in DMSO (1 μL) may be added per test well, and the inhibition relative to reactions containing no compound, with and without enzyme can be determined After assay incubation at RT, the reaction can be stopped and residual ATP can be determined by addition of an equal volume of a commercial ATP bioluminescence kit (Perkin Elmer EasyLite, Perkin Elmer, Waltham, Mass.) according to the manufacturer's instructions, and detected using an Analyst GT luminometer.

`O=S(=O)(Nc1cc(-c2ccc3nccc(N4CCOCC4)c3c2)cnc1Cl)c1ccc(F)cc1` [Example 1, N-(2-chloro-5-(4-(4-morpholinyl)-6-quinolinyl)-3-pyridinyl)-4-fluorobenzenesulfonamide] came in with an IC50 in assay [1] of 0.0174 µM.

Regarding `O=S(=O)(Nc1cc(-c2ccc3ncc(N4C[C@H]5CC[C@H](CC5)C4)nc3c2)cnc1Cl)c1ccc(F)cc1` [Example 62, N-(5-(3-(3-azabicyclo[3.2.2]non-3-yl)-6-quinoxalinyl)-2-chloro-3-pyridinyl)-4-fluorobenzenesulfonamide], the results for the IC50 (in assay [1]; against PI3Kβ) were 0.263 µM and 0.343 µM, respectively.

As to `CC(C)N1CCN(c2ccnc3ccc(-c4cnc(Cl)c(NS(=O)(=O)c5ccc(F)cc5)c4)cc23)CC1` [Example 25, N-(2-chloro-5-(4-(4-(1-methylethyl)-1-piperazinyl)-6-quinolinyl)-3-pyridinyl)-4-fluorobenzenesulfonamide], the concentration for half-maximal inhibition (IC50) came to 0.0189 µM in assay [1] and 0.0119 µM on PI3Kβ.

For `O=S(=O)(Nc1cc(-c2ccc3ncc(NCC4CCCCC4)nc3c2)cnc1Cl)c1ccc(F)cc1` [Example 70, N-(2-chloro-5-(3-((cyclohexylmethyl)amino)-6-quinoxalinyl)-3-pyridinyl)-4-fluorobenzenesulfonamide], the concentration for half-maximal inhibition (IC50) in assay [1] was 0.151 µM; against PI3Kβ, 0.0532 µM.

As to `O=S(=O)(Nc1cc(-c2ccc3nccnc3c2)cnc1Cl)c1ccc(F)cc1` [Example 6, N-(2-chloro-5-(6-quinoxalinyl)-3-pyridinyl)-4-fluorobenzenesulfonamide], the concentration for half-maximal inhibition (IC50) came out at 1.59 µM in assay [1] and 0.0254 µM against PI3Kβ.

Take `O=S(=O)(Nc1cc(-c2ccc3nccc(N4CCCCC4)c3c2)cnc1Cl)c1ccc(F)cc1` [Example 24, N-(2-chloro-5-(4-(1-piperidinyl)-6-quinolinyl)-3-pyridinyl)-4-fluorobenzenesulfonamid]: the concentration for half-maximal inhibition (IC50) in assay [1] was determined as 0.159 µM; on PI3Kβ, 0.0184 µM.

`O=S(=O)(Nc1cc(-c2ccc3ncc(NCCc4ccccc4)nc3c2)cnc1Cl)c1ccc(F)cc1` [Example 64, N-(2-chloro-5-(3-((2-phenylethyl)amino)-6-quinoxalinyl)-3-pyridinyl)-4-fluorobenzenesulfonamide]: the IC50 worked out at 0.188 µM in assay [1] and 0.0597 µM against PI3Kβ.

Regarding `COCCNc1cnc2ccc(-c3cnc(Cl)c(NS(=O)(=O)c4ccc(F)cc4)c3)cc2n1` [Example 73, N-(2-chloro-5-(3-((2-methoxyethyl)amino)-6-quinoxalinyl)-3-pyridinyl)-4-fluorobenzenesulfonamide], the IC50 in assay [1] was found to be 0.0595 µM; at PI3Kβ, 0.0334 µM.

With `COc1ncccc1-c1ccnc2ccc(-c3cnc(Cl)c(NS(=O)(=O)c4ccc(F)cc4)c3)cc12` [Example 35, N-(2-chloro-5-(4-(2-methoxy-3-pyridinyl)-6-quinolinyl)-3-pyridinyl)-4-fluorobenzenesulfonamide], the results for the half-inhibitory concentration (IC50) (in assay [1]; on PI3Kβ) were 0.0548 µM and 0.0212 µM, respectively.

Compound `COCCNc1ccnc2ccc(-c3cnc(Cl)c(NS(=O)(=O)c4ccc(F)cc4)c3)cc12` [Example 98, N-(2-chloro-5-(4-((2-methoxyethyl)amino)-6-quinolinyl)-3-pyridinyl)-4-fluorobenzenesulfonamide] came in with an IC50 on mTOR of 1.16 µM.

With `COc1nc(-c2cnc(Cl)c(NS(=O)(=O)c3ccc(F)cc3)c2)cc2cccnc12` [Example 76, N-(2-Chloro-5-(8-methoxy-1,7-naphthyridin-6-yl)pyridin-3-yl)-4-fluorobenzenesulfonamide], in assay [1], half-maximal inhibition (IC50) was put at 0.806 µM.

Compound `CN(C)c1ccnc2ccc(-c3cnc(Cl)c(NS(=O)(=O)c4ccc(F)cc4)c3)cc12` [Example 97, N-(2-chloro-5-(4-(dimethylamino)-6-quinolinyl)-3-pyridinyl)-4-fluorobenzenesulfonamide] yielded a concentration for half-maximal inhibition (IC50) against mTOR of 0.111 µM.

In the case of `O=S(=O)(Nc1cc(-c2ccc3ncc(N4CCOCC4)nc3c2)cnc1Cl)c1ccc(F)cc1` [Example 20, N-(2-chloro-5-(3-(4-morpholinyl)-6-quinoxalinyl)-3-pyridinyl)-4-fluorobenzenesulfonamide], the IC50 in assay [1] stood at 0.0062 µM.
